Laboratory results from patent US6362203B1, “4-hydroxy-4-phenylpiperidine derivatives and pharmaceuticals containing the same” (SSP Co., LTD, priority 1999, dated 2002).

Experiments:
opioid receptor = conditions: agonist activity relative to DAMGO (=1.0); guinea pig ileum longitudinal muscle sample
Method: Test 1: Action on the ileum sample excised from a guinea pig
A Hartley male guinea pig of about 500 g in weight was employed. From its ileocecum, 15 to 30 cm of the ileum was excised and a longitudinal muscle sample attached with the Auerbach's plexus was prepared. […] The agonist activity was indicated in terms of relative potency to DAMGO ([D-Ala^2, N-MePhe^4, Gly^5-ol]-enkephalin), a selective μ-opioid agonist.

Compound | melting point | Relative potency (opioid receptor)
CCCCNC(=O)C(CCN1CCC(O)(c2ccccc2OCCO)CC1)(c1ccccc1)c1ccccc1 | 130 to 131 °C | –
C[C@@H](NC(=O)[C@@H](N)Cc1ccc(O)cc1)C(=O)NCC(=O)N(C)[C@@H](Cc1ccccc1)C(=O)NCCO [DAMGO, [D-Ala^2, N-MePhe^4, Gly^5-ol]-enkephalin] | – | 1.0

The next lines start with results.

melting point | Compound | Relative potency (opioid receptor)
169 °C | CN(C)C(=O)C(CCN1CCC(O)(c2cccc(O)c2)CC1)(c1ccccc1)c1ccccc1 | –
110 °C | CN(C)C(=O)C(CCN1CCC(O)(c2ccccc2OCCCCCCO)CC1)(c1ccccc1)c1ccccc1.Cl | –
155 °C | CN(C)C(=O)C(CCN1CCC(O)(c2ccc(O)cc2)CC1)(c1ccccc1)c1ccccc1 | –
